Assay results published in patent US6670367B1, “Azinyloxy, and phenoxy-diaryl-carboxylic acid derivatives, their preparation and use as mixed ETA/ETB endothelin receptor antagonists” (Abbott GmbH & Co., KG, priority 1996, dated 2003).

Row | SMILES | melting point
1 | Cc1cc(C)nc(OC(C(=O)O)C(O/C=C/Cc2ccccc2)(c2ccccc2)c2ccccc2)n1 (stereo not shown) [Compound I-27, 2-(4,6-Dimethyl-2-pyrimidinyloxy)-3-(3-phenyl-(2E)-propenoxy)-3,3-diphenylpropionic Acid] | 128 to 133 °C
2 | COc1cc(C)nc(OC(C(=O)O)C(O/C=C/Cc2ccccc2)(c2ccccc2)c2ccccc2)n1 (stereo not shown) [Compound I-44, 2-(4-Methoxy-6-methyl-2-pyrimidinyloxy)-3-(3-phenyl-(2E)-propenoxy)-3,3-diphenylpropionic Acid] | 171 to 174 °C
3 | CCCOc1ccc(CCOC(c2ccccc2)(c2ccccc2)C(Oc2nc(C)cc(OC)n2)C(=O)O)cc1 (stereo not shown) [Compound I-69, 2-(4-Methoxy-6-methyl-2-pyrimidinyloxy)-3-(2-(4-propoxyphenyl)ethoxy)-3,3-diphenylpropionic Acid] | 115 to 119 °C
4 | CCCCOc1ccc(CCOC(c2ccccc2)(c2ccccc2)C(Oc2nc(C)cc(C)n2)C(=O)O)cc1 (stereo not shown) [Compound I-70, 2-(4,6-Dimethyl-2-pyrimidinyloxy)-3-(2-(4-butoxyphenyl)ethoxy)-3,3-diphenylpropionic Acid] | 122 to 125 °C
5 | CCCCOc1ccc(CCOC(c2ccccc2)(c2ccccc2)C(Oc2nc(C)cc(OC)n2)C(=O)O)cc1 (stereo not shown) [Compound I-71, 2-(4-Methoxy-6-methyl-2-pyrimidinyloxy)-3-(2-(4-butoxyphenyl)ethoxy)-3,3-diphenylpropionic Acid] | 118 to 122 °C
6 | CCc1ccc(C(OCCc2ccc(OC)cc2)(c2ccc(CC)cc2)C(Oc2nc(C)cc(OC)n2)C(=O)O)cc1 (stereo not shown) [Compound I-147, 2-(4-Methoxy-6-methyl-2-pyrimidinyloxy)-3-(2-(4-methoxyphenyl)ethoxy)-3,3-di(4-ethylphenyl)propionic Acid] | 150 to 155 °C
7 | CCc1ccc(C(OCCc2ccc(OC)cc2)(c2ccc(CC)cc2)C(Oc2nc(C)cc(C)n2)C(=O)O)cc1 (stereo not shown) [Compound I-148, 2-(4,6-Dimethyl-2-pyrimidinyloxy)-3-(2-(4-methoxyphenyl)ethoxy)-3,3-di(4-ethylphenyl)propionic Acid] | 130 to 133 °C
8 | Cc1cc(C)nc(OC(C(=O)O)C(OCCCc2ccccc2Cl)(c2ccccc2)c2ccccc2)n1 (stereo not shown) [Compound I-384, 2-(4,6-Dimethyl-2-pyrimidinyloxy)-3-(3-(2-chlorophenyl)propoxy)-3,3-diphenylpropionic Acid] | 172 to 178 °C
9 | COc1cc(C)nc(OC(C(=O)O)C(OCCc2ccc(C)cc2)(c2ccccc2)c2ccccc2)n1 (stereo not shown) [Compound I-465, 2-(4-Methoxy-6-methyl-2-pyrimidinyloxy)-3-(2-(4-methylphenyl)ethoxy)-3,3-diphenylpropionic Acid] | 145 to 147 °C
10 | COc1cc(C)nc(OC(C(=O)O)C(OCCc2ccccc2OC)(c2ccc(Cl)cc2)c2ccc(Cl)cc2)n1 (stereo not shown) [Compound I-487, 2-(4-Methoxy-6-methyl-2-pyrimidinyloxy)-3-(2-(2-methoxyphenyl)ethoxy)-3,3-di(4-chlorophenyl)propionic Acid] | 85 to 90 °C
11 | COc1ccc(CCCOC(c2ccccc2)(c2ccccc2)C(Oc2nc(C)cc(OC)n2)C(=O)O)cc1 (stereo not shown) [Compound I-554, 2-(4-Methoxy-6-methyl-2-pyrimidinyloxy)-3-(3-(4-methoxyphenyl)propoxy)-3,3-diphenylpropionic Acid] | 160 to 165 °C
12 | COc1ccc(CCCOC(c2ccccc2)(c2ccccc2)C(Oc2nc(C)cc(C)n2)C(=O)O)cc1 (stereo not shown) [Compound I-555, 2-(4,6-Dimethyl-2-pyrimidinyloxy)-3-(3-(4-methoxyphenyl)propoxy)-3,3-diphenylpropionic Acid] | 165 to 170 °C
13 | COc1cc(C)nc(OC(C(=O)O)C(OCCc2ccc(C)cc2)(c2ccc(Cl)cc2)c2ccc(Cl)cc2)n1 (stereo not shown) [Compound I-710, 2-(4-Methoxy-6-methyl-2-pyrimidinyloxy)-3-(2-(4-methylphenyl)ethoxy)-3,3-di(4-chlorophenyl)propionic Acid] | 90 to 100 °C
